In the NIST ThermoML archive (doi:10.1016/j.jct.2006.10.008):
Numbers after ± are expanded uncertainties.

How the values were obtained:
[1] = xn = mol fraction of the nth substance listed; conditions: 298.15 K, 101 kPa, Liquid
[2] = excess molar enthalpy (molar enthalpy of mixing); xn = mol fraction of the nth substance listed; conditions: 298.15 K, 101 kPa, Liquid, Calvet calorimetry

Compound: CCCCCOC=O [pentyl methanoate] + ClCCCCCCl
- mass density ([1]; x1 = 0.0607): 1082.26 ± 0.49 kg/m3
- mass density ([1]; x1 = 0.1185): 1069.95 ± 0.46 kg/m3
- mass density ([1]; x1 = 0.1761): 1057.7 ± 0.44 kg/m3
- mass density ([1]; x1 = 0.2336): 1045.52 ± 0.41 kg/m3
- mass density ([1]; x1 = 0.2924): 1033.04 ± 0.39 kg/m3
- mass density ([1]; x1 = 0.3501): 1020.86 ± 0.36 kg/m3
- mass density ([1]; x1 = 0.4661): 996.38 ± 0.33 kg/m3
- mass density ([1]; x1 = 0.5254): 983.92 ± 0.34 kg/m3
- mass density ([1]; x1 = 0.6434): 959.15 ± 0.37 kg/m3
- mass density ([1]; x1 = 0.7028): 946.7 ± 0.39 kg/m3
- mass density ([1]; x1 = 0.7612): 934.48 ± 0.4 kg/m3
- mass density ([1]; x1 = 0.8194): 922.34 ± 0.41 kg/m3
- mass density ([1]; x1 = 0.8788): 909.95 ± 0.43 kg/m3
- mass density ([1]; x1 = 0.9368): 897.88 ± 0.44 kg/m3
- excess molar enthalpy ([2]; x1 = 0.0613): -0.00304 ± 0.000215 kcal/mol
- excess molar enthalpy ([2]; x1 = 0.141): -0.00758 ± 0.000239 kcal/mol
- excess molar enthalpy ([2]; x1 = 0.2146): -0.0133 ± 0.000287 kcal/mol
- excess molar enthalpy ([2]; x1 = 0.2884): -0.0206 ± 0.000359 kcal/mol
- excess molar enthalpy ([2]; x1 = 0.3563): -0.0273 ± 0.000406 kcal/mol
- excess molar enthalpy ([2]; x1 = 0.4177): -0.0314 ± 0.00043 kcal/mol
- excess molar enthalpy ([2]; x1 = 0.4725): -0.0349 ± 0.000454 kcal/mol
- excess molar enthalpy ([2]; x1 = 0.5239): -0.0355 ± 0.000454 kcal/mol
- excess molar enthalpy ([2]; x1 = 0.5551): -0.0363 ± 0.000478 kcal/mol
- excess molar enthalpy ([2]; x1 = 0.6165): -0.0347 ± 0.000454 kcal/mol
- excess molar enthalpy ([2]; x1 = 0.6887): -0.0321 ± 0.00043 kcal/mol
- excess molar enthalpy ([2]; x1 = 0.7706): -0.0272 ± 0.000406 kcal/mol
- excess molar enthalpy ([2]; x1 = 0.8586): -0.0187 ± 0.000335 kcal/mol
- excess molar enthalpy ([2]; x1 = 0.9347): -0.00997 ± 0.000263 kcal/mol

Compound: ClCCCCCl [1,4-dichlorobutane] + COC=O
- mass density ([1]; x2 = 0.1002): 1123.14 ± 0.57 kg/m3
- mass density ([1]; x2 = 0.1967): 1112.22 ± 0.54 kg/m3
- mass density ([1]; x2 = 0.2763): 1102.15 ± 0.52 kg/m3
- mass density ([1]; x2 = 0.3523): 1092.16 ± 0.5 kg/m3
- mass density ([1]; x2 = 0.4263): 1081.69 ± 0.48 kg/m3
- mass density ([1]; x2 = 0.4898): 1072.05 ± 0.46 kg/m3
- mass density ([1]; x2 = 0.5567): 1061.23 ± 0.44 kg/m3
- mass density ([1]; x2 = 0.615): 1051.3 ± 0.42 kg/m3
- mass density ([1]; x2 = 0.6692): 1041.41 ± 0.4 kg/m3
- mass density ([1]; x2 = 0.7199): 1031.71 ± 0.39 kg/m3
- mass density ([1]; x2 = 0.7663): 1022.34 ± 0.37 kg/m3
- mass density ([1]; x2 = 0.8116): 1012.65 ± 0.35 kg/m3
- mass density ([1]; x2 = 0.8535): 1003.36 ± 0.33 kg/m3
- mass density ([1]; x2 = 0.8907): 994.7 ± 0.33 kg/m3
- mass density ([1]; x2 = 0.9302): 985.1 ± 0.34 kg/m3
- mass density ([1]; x2 = 0.9657): 976.07 ± 0.35 kg/m3
- excess molar enthalpy ([2]; x2 = 0.1071): 0.0424 ± 0.000526 kcal/mol
- excess molar enthalpy ([2]; x2 = 0.2326): 0.08 ± 0.000813 kcal/mol
- excess molar enthalpy ([2]; x2 = 0.3559): 0.1062 ± 0.001 kcal/mol
- excess molar enthalpy ([2]; x2 = 0.4541): 0.1196 ± 0.00112 kcal/mol
- excess molar enthalpy ([2]; x2 = 0.5426): 0.1239 ± 0.00115 kcal/mol
- excess molar enthalpy ([2]; x2 = 0.5971): 0.123 ± 0.00115 kcal/mol
- excess molar enthalpy ([2]; x2 = 0.6515): 0.1218 ± 0.00112 kcal/mol
- excess molar enthalpy ([2]; x2 = 0.7083): 0.1165 ± 0.0011 kcal/mol
- excess molar enthalpy ([2]; x2 = 0.7662): 0.108 ± 0.00103 kcal/mol
- excess molar enthalpy ([2]; x2 = 0.8103): 0.09393 ± 0.000908 kcal/mol
- excess molar enthalpy ([2]; x2 = 0.8803): 0.0755 ± 0.000789 kcal/mol
- excess molar enthalpy ([2]; x2 = 0.9274): 0.0548 ± 0.000645 kcal/mol
- excess molar enthalpy ([2]; x2 = 0.9702): 0.032 ± 0.000478 kcal/mol

Compound: ClCCCCCCl [1,5-dichloropentane] + COC=O
- mass density ([1]; x2 = 0.1169): 1086.48 ± 0.49 kg/m3
- mass density ([1]; x2 = 0.2211): 1077.88 ± 0.48 kg/m3
- mass density ([1]; x2 = 0.3054): 1070.16 ± 0.46 kg/m3
- mass density ([1]; x2 = 0.3849): 1062.32 ± 0.45 kg/m3
- mass density ([1]; x2 = 0.4622): 1054 ± 0.43 kg/m3
- mass density ([1]; x2 = 0.5291): 1046.2 ± 0.41 kg/m3
- mass density ([1]; x2 = 0.5925): 1038.15 ± 0.4 kg/m3
- mass density ([1]; x2 = 0.6496): 1030.38 ± 0.38 kg/m3
- mass density ([1]; x2 = 0.7004): 1022.87 ± 0.37 kg/m3
- mass density ([1]; x2 = 0.7481): 1015.48 ± 0.35 kg/m3
- mass density ([1]; x2 = 0.792): 1008.18 ± 0.34 kg/m3
- mass density ([1]; x2 = 0.8333): 1001 ± 0.32 kg/m3
- mass density ([1]; x2 = 0.8711): 993.92 ± 0.33 kg/m3
- mass density ([1]; x2 = 0.9066): 986.88 ± 0.34 kg/m3
- mass density ([1]; x2 = 0.94): 980.05 ± 0.35 kg/m3
- mass density ([1]; x2 = 0.9705): 973.45 ± 0.35 kg/m3
- excess molar enthalpy ([2]; x2 = 0.1095): 0.0523 ± 0.000598 kcal/mol
- excess molar enthalpy ([2]; x2 = 0.2232): 0.0884 ± 0.000884 kcal/mol
- excess molar enthalpy ([2]; x2 = 0.3299): 0.1192 ± 0.00112 kcal/mol
- excess molar enthalpy ([2]; x2 = 0.4118): 0.1356 ± 0.00124 kcal/mol
- excess molar enthalpy ([2]; x2 = 0.4763): 0.1457 ± 0.00131 kcal/mol
- excess molar enthalpy ([2]; x2 = 0.5269): 0.1465 ± 0.00131 kcal/mol
- excess molar enthalpy ([2]; x2 = 0.5661): 0.1483 ± 0.00134 kcal/mol
- excess molar enthalpy ([2]; x2 = 0.613): 0.1504 ± 0.00136 kcal/mol
- excess molar enthalpy ([2]; x2 = 0.6627): 0.1476 ± 0.00134 kcal/mol
- excess molar enthalpy ([2]; x2 = 0.7114): 0.1441 ± 0.00129 kcal/mol
- excess molar enthalpy ([2]; x2 = 0.7734): 0.1339 ± 0.00122 kcal/mol
- excess molar enthalpy ([2]; x2 = 0.8369): 0.1151 ± 0.0011 kcal/mol
- excess molar enthalpy ([2]; x2 = 0.88): 0.09362 ± 0.000932 kcal/mol
- excess molar enthalpy ([2]; x2 = 0.9328): 0.0669 ± 0.000741 kcal/mol
- excess molar enthalpy ([2]; x2 = 0.9693): 0.0361 ± 0.000574 kcal/mol
